Laboratory results: ChEMBL document CHEMBL1201862, “PubChem BioAssay data set” (2004)
Where “and” joins values, the source holds several entries; their conditions need not be identical. Equal values may be shown once.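 Five compound concentrations were applied to cells in 96-well plates for 48 hours; endpoints were derived by simple linear interpolation of the resulting dose-response curve. GI50 is the concentration that inhibits growth by half.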 Calls of active or inactive are those of the source. Rule as the data show it: active = GI50 up to about 1.1 µM and inactive = higher.

Columns and labels:
Experiment in all cases: growth of human tumour cells (NCI), 48 h
MCF7 = system: MCF7
NCI-H460 = system: NCI-H460
MDA-N = system: MDA-N
NCI-H23 = system: NCI-H23
SF-268 = system: SF-268
SN12C = system: SN12C
OVCAR-4 = system: OVCAR-4
SF-295 = system: SF-295
NCI/ADR-RES = system: NCI/ADR-RES
ACHN = system: ACHN
A549 = system: A549
HT-29 = system: HT-29
M14 = system: M14
MDA-MB-231 = system: MDA-MB-231
UO-31 = system: UO-31
LOX IMVI = system: LOX IMVI
HL-60 = system: HL-60
CAKI-1 = system: CAKI-1
OVCAR-3 = system: OVCAR-3
MDA-MB-435 = system: MDA-MB-435

Measured: GI50

Cc1ccc(S(=O)(=O)NC(=O)NC(CO)C(=O)O)cc1 (configuration not stated)
inactive: MCF7 > 100 µM | NCI-H460 > 100 µM | MDA-N > 100 µM | NCI-H23 > 100 µM | SF-268 > 100 µM | SN12C > 100 µM | OVCAR-4 > 100 µM | SF-295 > 100 µM | NCI/ADR-RES > 100 µM | ACHN > 100 µM | A549 > 100 µM | HT-29 > 100 µM | M14 > 100 µM | MDA-MB-231 > 100 µM | UO-31 > 100 µM | LOX IMVI > 100 µM | HL-60 > 100 µM

CC1CN=C(Nc2ccc(S(N)(=O)=O)cc2)S1 (configuration not stated)
inactive: MCF7 78.5 µM | NCI-H460 > 100 µM | MDA-N > 10 µM | NCI-H23 > 100 µM | SF-268 > 100 µM | SN12C > 100 µM | OVCAR-4 > 100 µM | SF-295 > 100 µM | NCI/ADR-RES > 100 µM | ACHN > 100 µM | A549 > 100 µM | HT-29 > 100 µM | M14 > 100 µM | MDA-MB-231 > 100 µM | UO-31 39.4 µM | LOX IMVI > 10 µM | CAKI-1 > 100 µM | OVCAR-3 > 100 µM | HL-60 > 100 µM

Cc1ccc(N(C(=O)Nc2ccc(F)c(Cl)c2)C2=NCC(C)S2)cc1 (configuration not stated)
inactive: MCF7 8.83 µM | NCI-H460 45.1 µM | MDA-N 46.7 µM | NCI-H23 28.6 µM | SF-268 27.8 µM | SN12C 67 µM | OVCAR-4 38.7 µM | SF-295 49.3 µM | NCI/ADR-RES 22.6 µM | ACHN 50.2 µM | A549 57.3 µM | HT-29 36 µM | MDA-MB-231 > 100 µM | UO-31 > 100 µM | LOX IMVI 30.2 µM | CAKI-1 22.2 µM | OVCAR-3 45.3 µM | HL-60 23.8 µM

O=C1NC(Nc2ccccc2)=N/C1=C\c1c(Cl)cccc1Cl
inactive: MCF7 19.4 µM | NCI-H460 24.9 µM | MDA-N 19.8 µM | NCI-H23 29.6 µM | SF-268 29.3 µM | SN12C 15.7 µM | OVCAR-4 7.18 µM | SF-295 31.3 µM | NCI/ADR-RES 23.6 µM | ACHN 37.5 µM | A549 18.2 µM | HT-29 30.6 µM | M14 22.8 µM | UO-31 4.42 µM | LOX IMVI 62.7 µM | CAKI-1 48.1 µM | OVCAR-3 63.4 µM | HL-60 3.32 µM | MDA-MB-435 32.4 µM

CCOC(=O)NCC(=O)NCC(=O)NCC(N)=O
inactive: MCF7 > 100 µM | MDA-N > 100 µM | NCI-H23 > 100 µM | SF-268 > 100 µM | OVCAR-4 > 100 µM | SF-295 > 100 µM | NCI/ADR-RES > 100 µM | ACHN > 100 µM | A549 > 100 µM | HT-29 > 100 µM | M14 > 100 µM | MDA-MB-231 > 100 µM | UO-31 > 100 µM | CAKI-1 > 100 µM | OVCAR-3 > 100 µM | MDA-MB-435 > 100 µM

COc1ccc2c(c1)CC1=C(O2)c2ccc(OC)cc2OC1
inactive: MDA-N 17.5 µM | NCI-H23 45.7 µM | SF-268 24.4 µM | SN12C 20.5 µM | OVCAR-4 22.5 µM | SF-295 52.2 µM | NCI/ADR-RES 34 µM | ACHN 18.2 µM | A549 74.6 µM | HT-29 20.7 µM | M14 19.7 µM | MDA-MB-231 39.6 µM | UO-31 61.2 µM | LOX IMVI 13.6 µM | CAKI-1 18.7 µM | OVCAR-3 19.9 µM | HL-60 > 100 µM | MDA-MB-435 17.5 µM

Cc1cc2nc(-c3cc(C(C)(C)C)c(O)c(C(C)(C)C)c3)[nH]c2cc1C
inactive: NCI-H460 4.47 µM | MDA-N 3.49 µM | NCI-H23 > 34 µM | SF-268 9.62 µM | SN12C 9.62 µM | OVCAR-4 1.54 µM | SF-295 > 100 µM | NCI/ADR-RES > 68.7 µM | A549 2.44 µM | M14 4.67 µM | UO-31 6.17 µM | LOX IMVI 4.16 µM | OVCAR-3 11.6 µM | HL-60 13.8 µM | MDA-MB-435 > 23.3 µM

O=C1c2ccccc2C2=Nc3ccncc3CN12
inactive: MCF7 > 100 µM | NCI-H460 > 100 µM | MDA-N > 100 µM | NCI-H23 > 100 µM | SF-268 > 100 µM | SN12C > 100 µM | OVCAR-4 > 100 µM | SF-295 > 100 µM | NCI/ADR-RES > 100 µM | ACHN > 100 µM | A549 > 100 µM | HT-29 > 100 µM | M14 > 100 µM | UO-31 > 100 µM | CAKI-1 > 100 µM | OVCAR-3 > 100 µM | HL-60 > 100 µM

Cc1c2c(OCCCCN3CCN(c4ncccn4)CC3)nn(C)c(=O)c2c(C)n1-c1ccccc1
inactive: MCF7 16.4 µM | NCI-H460 17.4 µM | NCI-H23 19.1 µM | SF-268 18.7 µM | SN12C 17.2 µM | OVCAR-4 19.5 µM | SF-295 16.4 µM | NCI/ADR-RES 21.3 µM | ACHN 17.4 µM | A549 20.7 µM | HT-29 24.8 µM | M14 20.7 µM | MDA-MB-231 16 µM | UO-31 15.8 µM | LOX IMVI 20.4 µM | CAKI-1 16.9 µM | OVCAR-3 19.5 µM | HL-60 21.1 µM | MDA-MB-435 18.7 µM

COC1OC(Cn2cc([N+](=O)[O-])nc2C)C(O)C(O)C1O (configuration not stated)
inactive: MCF7 > 100 µM | NCI-H460 > 100 µM | MDA-N > 100 µM | NCI-H23 > 100 µM | OVCAR-4 > 100 µM | SF-295 > 100 µM | NCI/ADR-RES > 100 µM | ACHN > 100 µM | A549 > 100 µM | HT-29 > 100 µM | M14 > 100 µM | MDA-MB-231 > 100 µM | UO-31 > 100 µM | CAKI-1 > 100 µM | OVCAR-3 > 100 µM | MDA-MB-435 > 100 µM

N#C/C(C(=O)Nc1ccccc1)=C(/N)N1CCCC1
inactive: NCI-H460 > 100 µM | MDA-N > 100 µM | NCI-H23 > 100 µM | SF-268 > 100 µM | SN12C > 100 µM | OVCAR-4 > 100 µM | SF-295 > 100 µM | NCI/ADR-RES > 100 µM | ACHN > 100 µM | A549 > 100 µM | HT-29 88.1 µM | M14 > 100 µM | MDA-MB-231 > 100 µM | UO-31 97.9 µM | LOX IMVI > 100 µM | CAKI-1 > 100 µM | OVCAR-3 > 100 µM | HL-60 > 100 µM | MDA-MB-435 > 100 µM

N#Cc1c(-c2ccccc2)c(C#N)c(=S)n(C2OC(CO)C(O)C(O)C2O)c1N (configuration not stated)
inactive: NCI-H460 94 µM | MDA-N > 100 µM | NCI-H23 > 100 µM | SF-268 > 100 µM | SN12C > 100 µM | OVCAR-4 > 100 µM | SF-295 > 100 µM | ACHN 99.8 µM and 61.2 µM | A549 > 100 µM | HT-29 > 100 µM | M14 > 100 µM | MDA-MB-231 > 100 µM | LOX IMVI 86.9 µM | CAKI-1 92.7 µM | OVCAR-3 > 100 µM | HL-60 > 100 µM

Cc1ccccc1Nc1nc2ccccc2nc1NS(=O)(=O)c1ccccc1
inactive: MCF7 > 100 µM | NCI-H460 > 100 µM | NCI-H23 43.1 µM | SF-268 > 100 µM | SN12C > 100 µM | OVCAR-4 38.5 µM | SF-295 67.1 µM | NCI/ADR-RES > 100 µM | ACHN > 100 µM | A549 > 100 µM | HT-29 > 100 µM | M14 > 100 µM | MDA-MB-231 > 100 µM | UO-31 > 100 µM | LOX IMVI > 100 µM | CAKI-1 > 100 µM | OVCAR-3 > 100 µM | HL-60 > 100 µM | MDA-MB-435 > 100 µM

CC1C2CC(CC2=O)C1(C)C (configuration not stated)
inactive: MCF7 > 100 µM | NCI-H460 > 100 µM | MDA-N > 100 µM | NCI-H23 > 100 µM | SF-268 > 100 µM | SN12C > 100 µM | OVCAR-4 > 100 µM | SF-295 > 100 µM | ACHN > 100 µM | A549 > 100 µM | HT-29 > 100 µM | M14 > 100 µM | MDA-MB-231 > 100 µM | UO-31 > 100 µM | CAKI-1 > 100 µM | OVCAR-3 > 100 µM | HL-60 > 100 µM | MDA-MB-435 > 100 µM

CC(=O)ON(OC(C)=O)c1ccc(C)cc1
inactive: MCF7 > 100 µM | NCI-H460 > 100 µM | MDA-N > 100 µM | NCI-H23 > 100 µM | SF-268 > 100 µM | OVCAR-4 > 100 µM | SF-295 > 100 µM | NCI/ADR-RES > 100 µM | ACHN > 100 µM | A549 > 100 µM | HT-29 > 100 µM | M14 > 100 µM | MDA-MB-231 > 100 µM | UO-31 > 100 µM | CAKI-1 > 100 µM | OVCAR-3 > 100 µM | MDA-MB-435 > 100 µM

O/N=C1\CCc2nonc2\C1=N/Nc1ccccc1
inactive: NCI-H460 > 100 µM | MDA-N > 100 µM | NCI-H23 > 100 µM | SF-268 > 100 µM | SN12C > 100 µM | OVCAR-4 > 100 µM | SF-295 > 100 µM | NCI/ADR-RES > 100 µM | ACHN 43.7 µM | A549 > 100 µM | HT-29 > 100 µM | M14 > 100 µM | MDA-MB-231 > 100 µM | UO-31 30.5 µM | LOX IMVI > 100 µM | CAKI-1 > 100 µM | OVCAR-3 > 100 µM | HL-60 > 100 µM | MDA-MB-435 > 100 µM
